In brackets after ≈: the same amount, converted by molar mass.
Legend:
[1] = Inhibition of Francisella tularensis GyrB assessed as release of inorganic phosphate from ATP hydrolysis after 30 mins by coupled spectrophotometric assay
Escherichia coli [2] = assay: Antibacterial activity against Escherichia coli BW25113 harboring deltatolC by broth microdilution method; type: functional
[3] = Inhibition of Escherichia coli parE assessed as release of inorganic phosphate from ATP hydrolysis after 30 mins by coupled spectrophotometric assay
Escherichia coli [4] = assay: Antibacterial activity against wild type Escherichia coli ATCC 25922 by broth microdilution method; type: functional
Staphylococcus aureus [5] = assay: Antibacterial activity against Staphylococcus aureus ATCC 13709 by broth microdilution method; type: functional
Escherichia coli [6] = assay: Antibacterial activity against permeabilized Escherichia coli IBAS849 by broth microdilution method; type: functional
[7] = Inhibition of Escherichia coli GyrB assessed as release of inorganic phosphate from ATP hydrolysis after 30 mins by coupled spectrophotometric assay
Pseudomonas aeruginosa = assay: Antibacterial activity against Pseudomonas aeruginosa PAO1 by broth microdilution method; type: functional
[8] = Inhibition of Francisella tularensis parE assessed as release of inorganic phosphate from ATP hydrolysis after 30 mins by coupled spectrophotometric assay
Klebsiella pneumoniae = assay: Antibacterial activity against Klebsiella pneumoniae ATCC 700603 by broth microdilution method; type: functional
Staphylococcus aureus [9] = assay: Antibacterial activity against Staphylococcus aureus ATCC 13709 by broth microdilution method in presence of 20% mouse serum; type: functional
Escherichia coli [10] = assay: Antibacterial activity against wild type Escherichia coli ATCC 25922 by broth microdilution method in presence of 20% mouse serum; type: functional
Haemophilus influenzae = assay: Antibacterial activity against Haemophilus influenzae ATCC 49247 by broth microdilution method; type: functional
Streptococcus pneumoniae = assay: Antibacterial activity against Streptococcus pneumoniae ATCC 51916 by broth microdilution method; type: functional
Acinetobacter baumannii = assay: Antibacterial activity against Acinetobacter baumannii ATCC 19606 by broth microdilution method; type: functional; settings: ATCC 19606 = CIP 70.34 = JCM 6841

Row | SMILES | Ki [1] [nM] | MIC (Escherichia coli [2]) [µg/mL] | Ki [3] [nM] | MIC (Escherichia coli [4]) [µg/mL] | MIC (Staphylococcus aureus [5]) [µg/mL] | MIC (Escherichia coli [6]) [µg/mL] | Ki [7] [nM] | MIC (Pseudomonas aeruginosa) [µg/mL] | Ki [8] [nM] | MIC (Klebsiella pneumoniae) [µg/mL] | MIC (Staphylococcus aureus [9]) [µg/mL] | MIC (Escherichia coli [10]) [µg/mL] | MIC (Haemophilus influenzae) [µg/mL] | MIC (Streptococcus pneumoniae) [µg/mL] | MIC (Acinetobacter baumannii) [µg/mL]
1 | CCNC(=O)NC1CN(c2nc(Sc3cnc4nccnc4c3)nc3[nH]c(CC)c(Cl)c23)C1 | < 1 | > 64 | 2 | > 64 | > 64 | > 64 | – | – | – | – | – | – | – | – | –
2 | CCc1[nH]c2nc(Sc3cnc4nccnc4c3)nc(N3CC(NS(C)(=O)=O)C3)c2c1Cl | < 1 | – | 9 | > 64 | 4 (≈ 8.15 µM) | 32 (≈ 65.2 µM) | – | – | – | – | – | – | – | – | –
3 | CCc1[nH]c2nc(Sc3cnc4nccnc4c3)nc(N3CC(NC(=O)C4CC4)C3)c2c1Cl | < 1 | 4 (≈ 8.32 µM) | 3 | > 64 | 1 (≈ 2.08 µM) | 8 (≈ 16.6 µM) | – | – | – | – | – | – | – | – | –
4 | CCc1[nH]c2nc(Sc3cnc4nccnc4c3)nc(N3CC(NC(=O)COC)C3)c2c1Cl | < 1 | 2 (≈ 4.12 µM) | 10 | > 64 | 0.25 (≈ 0.515 µM) | 4 (≈ 8.25 µM) | – | – | – | – | – | – | – | – | –
5 | CCc1[nH]c2nc(Sc3cnc4nccnc4c3)nc(N3CC(NC(=O)c4cnccn4)C3)c2c1Cl | < 1 | 4 (≈ 7.71 µM) | 9 | 64 (≈ 123 µM) | 1 (≈ 1.93 µM) | 8 (≈ 15.4 µM) | – | – | – | – | – | – | – | – | –
6 | CCc1[nH]c2nc(Sc3cnc4nccnc4c3)nc(N3C[C@@H]4[C@H](C3)[C@H]4NC(=N)N)c2c1Cl | – | 2 (≈ 4.16 µM) | < 1 | 64 (≈ 133 µM) | 0.25 (≈ 0.52 µM) | 2 (≈ 4.16 µM) | – | – | – | – | – | – | – | – | –
7 | CCc1[nH]c2nc(Sc3cnc4nccnc4c3)nc(N3C[C@@H]4[C@H](C3)[C@@]4(N)CO)c2c1Cl | < 1 | 0.5 (≈ 1.07 µM) | 2 | 64 (≈ 136 µM) | 0.25 (≈ 0.533 µM) | 4 (≈ 8.53 µM) | – | – | – | – | – | – | – | – | –
8 | CCc1[nH]c2nc(Sc3ccc4nccnc4c3)nc(N3C[C@@H]4[C@@H](N)[C@@H]4C3)c2c1Cl | – | 0.25 (≈ 0.571 µM) | 1 | > 64 | ≤ 0.13 | 0.25 (≈ 0.571 µM) | < 0.5 | – | – | – | – | – | – | – | –
9 | CCc1[nH]c2nc(Sc3ccc4cccnc4c3)nc(N3C[C@@H]4[C@@H](N)[C@@H]4C3)c2c1Cl | – | 1 (≈ 2.29 µM) | 6 | > 64 | 0.25 (≈ 0.572 µM) | 4 (≈ 9.15 µM) | 1 | – | – | – | – | – | – | – | –
10 | CCc1[nH]c2nc(Sc3ccc4ccc[n+]([O-])c4c3)nc(N3C[C@@H]4[C@@H](N)[C@@H]4C3)c2c1Cl | – | 0.25 (≈ 0.552 µM) | < 1 | 8 (≈ 17.7 µM) | ≤ 0.13 | 1 (≈ 2.21 µM) | < 0.5 | – | – | – | – | – | – | – | –
11 | CCc1[nH]c2nc(Sc3cnc4ccc[n+]([O-])c4c3)nc(N3C[C@@H]4[C@@H](N)[C@@H]4C3)c2c1Cl | – | 0.13 (≈ 0.286 µM) | 1.7 | 2 (≈ 4.41 µM) | 0.03 (≈ 0.0661 µM) | 0.13 (≈ 0.286 µM) | < 0.3 | 4 (≈ 8.81 µM) | 2.5 | 32 (≈ 70.5 µM) | 0.13 | 4 | 2 (≈ 4.41 µM) | 0.25 (≈ 0.551 µM) | 4 (≈ 8.81 µM)
12 | CCc1[nH]c2nc(Sc3cnc4c(c3)c(=O)ncn4C)nc(N3C[C@@H]4[C@@H](N)[C@@H]4C3)c2c1Cl | – | 2 (≈ 4.26 µM) | 3 | 32 (≈ 68.2 µM) | 0.5 (≈ 1.07 µM) | 2 (≈ 4.26 µM) | 5 | – | – | – | – | – | – | – | –
13 | CCc1[nH]c2nc(Sc3cccnc3)nc(NC[C@H](C)O)c2c1Cl | 171 | – | – | > 64 | 4 (≈ 11 µM) | 32 (≈ 87.9 µM) | – | – | 173 | – | – | – | – | – | –
14 | CCc1[nH]c2nc(Sc3cnc4nccnc4c3)nc(NC[C@H](C)O)c2c1Cl | 43 | 4 (≈ 9.62 µM) | – | > 64 | 1 (≈ 2.4 µM) | 8 (≈ 19.2 µM) | – | – | 23 | – | – | – | – | – | –
15 | CCc1[nH]c2nc(Sc3cnc4nccnc4c3)nc(N3CC(O)C3)c2c1Cl | 7 | 2 (≈ 4.83 µM) | – | > 64 | 0.25 (≈ 0.604 µM) | 4 (≈ 9.66 µM) | – | – | 5 | – | – | – | – | – | –
16 | CCc1[nH]c2nc(Sc3cnc4nccnc4c3)nc(N3CC(C)(N)C3)c2c1Cl | 16 | 16 (≈ 37.5 µM) | 69 | > 64 | 4 (≈ 9.37 µM) | 16 (≈ 37.5 µM) | – | – | – | – | – | – | – | – | –
17 | CCc1[nH]c2nc(Sc3cnc4nccnc4c3)nc(N3CCC(N)C3)c2c1Cl (centres undefined) | < 1 | 2 (≈ 4.68 µM) | 11 | 32 (≈ 75 µM) | 1 (≈ 2.34 µM) | 4 (≈ 9.37 µM) | – | – | – | – | – | – | – | – | –
18 | CCc1[nH]c2nc(Sc3cnc4nccnc4c3)nc(N3CCC(NC)C3)c2c1Cl (centres undefined) | 2 | 8 (≈ 18.1 µM) | 40 | > 64 | 2 (≈ 4.54 µM) | 16 (≈ 36.3 µM) | – | – | – | – | – | – | – | – | –
19 | CCc1[nH]c2nc(Sc3cnc4nccnc4c3)nc(N3CCCC(N)C3)c2c1Cl (centres undefined) | 7 | 16 (≈ 36.3 µM) | 131 | > 64 | 8 (≈ 18.1 µM) | 32 (≈ 72.6 µM) | – | – | – | – | – | – | – | – | –

From ChEMBL document CHEMBL2331254, “Pyrrolopyrimidine inhibitors of DNA gyrase B (GyrB) and topoisomerase IV (ParE), Part II: development of inhibitors with broad spectrum, Gram-negative antibacterial activity” (Bioorg Med Chem Lett, 2013)
